{"source": "patent US5843950A", "about": "“1,4-dihydropyridine compound and pharmaceutical composition containing the same” (Nikken Chemicals Co., Ltd., priority 1994, dated 1998)", "key": {"[1]": {"test_system": "VCR resistant murine leukemia (P388/VCR) cells", "assay": "In vivo effect for overcoming resistance to vincristine in VCR resistant murine leukemia (P388/VCR) bearing mice", "parameters": "species or system CDF1 male mice", "description": "In vivo test of action suppressing proliferation of cancer cells by concomitant use with anti-cancer drug\nThe number of survival days were found and the life prolonging rate (T/C) with respect to the controls was found. The effect in overcoming resistance to an anti-cancer drug (T/V) was found by the following formula.\nEffect for overcoming resistance to an anti-cancer drug (T/V) %\n=[Life prolonging rate (T/C) in case of concomitant use of VCR and the compound of the present invention]/[Life prolonging rate (T/C) in case of VCR alone]×100\nUsing Compound 18 to Compound 22 and Compound 32, the same procedure was followed as in Test Example 5 to find the effect for overcoming resistance to an anti-cancer drug in vincristine (VCR) resistant murine leukemia cell bearing mice."}, "TxA2 synthesis": {"test_system": "TxA2 synthesis", "assay": "TxA2 synthesis inhibiting action test (human blood platelet microsomes)", "type": "biochemical", "settings": "prostaglandin H2", "experimental": "TxA2 Synthesis Inhibiting Action Test\nOne ml of a buffer (20 mM Tris-HCl buffer, 1 mM EDTA, pH 7.5) containing human blood platelet microsomes (50 μg protein/ml) and the test compound (final concentration 10^-7 M) was agitated, then incubated at 0° C. for 30 minutes. To this was added prostaglandin H2 (100 ng/2 μl). This was incubated at 23° C. for 3 minutes to cause a reaction. Next, 1M hydrochloric acid was added to make the solution acidic and stop the reaction, then this was neutralized by 1M Tris-Base and centrifuged at 3000 rpm for 20 minutes. The amount of the TxB2 in the supernatant was measured by the EIA method (Cayman Co. kit)."}, "Acute toxicity test": {"assay": "Acute toxicity test", "settings": "mouse, in vivo, ip; mice, intraperitoneal, 7 days observation", "experimental": "Animals used: ICR male mice (Charles River Japan) 7-8 weeks old, three mice per group.\nTest method: The compound of the present invention was suspended in 0.5% sodium carboxymethylcellulose (CMC-Na) containing 0.1% Tween 80. It was administered to the mice intraperitoneally from 2000 mg/kg to 125 mg/kg by a ratio of 1/2 and from 125 mg/kg to 31.3 mg/kg by a ratio of 1/√2 in groups of three mice until no more deaths were observed. The survival of the animals was observed up until 7 days after administration and the LD50 was calculated by the Van Der Wearder area method."}, "[2]": {"test_system": "KCl contraction in rat arteries (thoracic aorta)", "assay": "Action easing KCl contraction in rat arteries (thoracic aorta ring)", "settings": "read-out: IC50 value (50% inhibitory concentration of hypercalcemic contraction), Test Example 8, Table 8"}, "[3]": {"test_system": "KCl contraction in rat arteries (thoracic aorta)", "assay": "Action easing KCl contraction in rat arteries (thoracic aorta ring)", "settings": "read-out: IC50 value (50% inhibitory concentration of hyperpotassium contraction), Test Example 7, Table 7, 37° C.", "experimental": "Action easing KCl contraction in rat arteries\nThe specimen was stabilized for approximately 60 minutes, then a potassium chloride solution was added to the Magnus tube to give a final concentration of […]. The positive control compound or the compound of the present invention was cumulatively added from 1×10^-10 M to 1×10^-4 M when the contraction reaction occurring at that time reached equilibrium. The contraction force was recorded by an FD-pickup (made by Nihon Kodensha) via a polygraph (made by Nihon Kodensha)."}, "[4]": {"settings": "Test Example 5, Table 5, T/C with VCR + compound over T/C with VCR alone ×100"}, "[5]": {"settings": "Test Example 5, Table 5, VCR 100 μg/kg i.p. 5 days with compound 100 mg/kg (verapamil 60, nicardipine 75 mg/kg)"}, "[6]": {"settings": "Test Example 6, Table 6, same procedure as Test Example 5"}}, "note": "Read-outs that look alike come from different tables or passages of the source.", "data": [{"smiles": "CCCC(C)C1C(C(=O)OCCCc2cccnc2)=C(C)NC(C)=C1C(=O)OCCCc1cccnc1", "note": "(stereo not drawn) [Compound 3, 2,6-dimethyl-4-(1-methylbutyl)-1,4-dihydropyridine-3,5-dicarboxylic acid bis[3-(3-pyridyl)propyl]ester]", "values": [{"measurement": "Effect for overcoming resistance T/V (%)", "setting": "[1]; [4]", "value": 161, "unit": "%"}, {"measurement": "Life prolonging rate T/C (%)", "setting": "[1]; [5]", "value": 172, "unit": "%"}, {"measurement": "Mean days of survival", "setting": "[1]; [5]", "value": 17.2, "unit": "days"}, {"measurement": "TxA2 synthesis inhibiting action Rate of suppression at 10^-7 mol (%)", "setting": "TxA2 synthesis", "value": 82.4, "unit": "%"}, {"measurement": "LD50 at 168 h", "setting": "Acute toxicity test", "value": 188, "unit": "mg/kg"}]}, {"smiles": "COC(=O)C1=C(C)NC(C)=C(C(=O)OCCCc2cccnc2)C1C(C)C", "note": "(stereo not drawn) [Compound 13, 2,6-dimethyl-4-isopropyl-1,4-dihydropyridine-3,5-dicarboxylic acid 3-methylester 5-[3-(3-pyridyl)propyl]ester]", "values": [{"measurement": "TxA2 synthesis inhibiting action Rate of suppression at 10^-7 mol (%)", "setting": "TxA2 synthesis", "value": 71.4, "unit": "%"}, {"measurement": "IC50", "setting": "[2]", "value": 5.7, "unit": "µM"}]}, {"smiles": "CCCCCCCCC1C(C(=O)OCCCc2cccnc2)=C(C)NC(C)=C1C(=O)OCCCc1cccnc1", "note": "[Compound 16, 2,6-dimethyl-4-n-octyl-1,4-dihydropyridine-3,5-dicarboxylic acid bis[3-(3-pyridyl)propyl]ester]", "values": [{"measurement": "IC50", "setting": "[2]", "value": 62, "unit": "µM"}, {"measurement": "LD50 at 168 h", "setting": "Acute toxicity test", "value": "> 2000", "unit": "mg/kg"}]}, {"smiles": "CC1=C(C(=O)OCCCc2cccnc2)C(Cc2ccccc2)C(C(=O)OCCCc2cccnc2)=C(C)N1", "note": "[Compound 5, 2,6-dimethyl-4-benzyl-1,4-dihydropyridine-3,5-dicarboxylic acid bis[3-(3-pyridyl)propyl]ester]", "values": [{"measurement": "IC50", "setting": "[2]", "value": 42, "unit": "µM"}, {"measurement": "LD50 at 168 h", "setting": "Acute toxicity test", "value": 1120, "unit": "mg/kg"}]}, {"smiles": "CC1=C(C(=O)OCCCc2cccnc2)C(C(C)C)C(C(=O)OCCCc2cccnc2)=C(C)N1", "note": "[Compound 1, 2,6-dimethyl-4-isopropyl-1,4-dihydropyridine-3,5-dicarboxylic acid bis[3-(3-pyridyl)propyl]ester]", "values": [{"measurement": "IC50", "setting": "[3]", "value": "> 30", "unit": "µM"}, {"measurement": "TxA2 synthesis inhibiting action Rate of suppression at 10^-7 mol (%)", "setting": "TxA2 synthesis", "value": 90.7, "unit": "%"}, {"measurement": "LD50 at 168 h", "setting": "Acute toxicity test", "value": 750, "unit": "mg/kg"}]}, {"smiles": "CC1=C(C(=O)OCCCc2cccnc2)C(C(c2ccccc2)c2ccccc2)C(C(=O)OCCCc2cccnc2)=C(C)N1", "note": "[Compound 6, 2,6-dimethyl-4-benzhydryl-1,4-dihydropyridine-3,5-dicarboxylic acid bis[3-(3-pyridyl)propyl]ester]", "values": [{"measurement": "IC50", "setting": "[3]", "value": 25.5, "unit": "µM"}, {"measurement": "LD50 at 168 h", "setting": "Acute toxicity test", "value": 2000, "unit": "mg/kg"}]}, {"smiles": "CCCCCC1C(C(=O)OCCCc2cccnc2)=C(C)NC(C)=C1C(=O)OCCCc1cccnc1", "note": "[Compound 18, 2,6-dimethyl-4-n-pentyl-1,4-dihydropyridine-3,5-dicarboxylic acid bis[3-(3-pyridyl)propyl]ester]", "values": [{"measurement": "Effect for overcoming resistance T/V (%)", "setting": "[1]; [6]", "value": 140, "unit": "%"}, {"measurement": "Life prolonging rate T/C (%)", "setting": "[1]; [6]", "value": 143, "unit": "%"}, {"measurement": "Mean days of survival", "setting": "[1]; [6]", "value": 15.3, "unit": "days"}, {"measurement": "IC50", "setting": "[2]", "value": 4.6, "unit": "µM"}, {"measurement": "LD50 at 168 h", "setting": "Acute toxicity test", "value": "> 2000", "unit": "mg/kg"}]}, {"smiles": "CC1=C(C(=O)OCCCc2cccnc2)C(C(C)C)C(C(=O)OCc2ccncc2)=C(C)N1", "note": "(stereo not drawn) [Compound 15, 2,6-dimethyl-4-isopropyl-1,4-dihydropyridine-3,5-dicarboxylic acid 3-(4-pyridylmethyl) ester, 5-[3-(3-pyridyl)propyl]ester]", "values": [{"measurement": "Effect for overcoming resistance T/V (%)", "setting": "[1]; [4]", "value": 134, "unit": "%"}, {"measurement": "Life prolonging rate T/C (%)", "setting": "[1]; [5]", "value": 144, "unit": "%"}, {"measurement": "Mean days of survival", "setting": "[1]; [5]", "value": 14.4, "unit": "days"}, {"measurement": "TxA2 synthesis inhibiting action Rate of suppression at 10^-7 mol (%)", "setting": "TxA2 synthesis", "value": 83.5, "unit": "%"}, {"measurement": "IC50", "setting": "[2]", "value": 4.2, "unit": "µM"}]}, {"smiles": "CC1=C(C(=O)OCCCc2cccnc2)C(CC(C)CC(C)(C)C)C(C(=O)OCCCc2cccnc2)=C(C)N1", "note": "(stereo not drawn) [Compound 22, 2,6-dimethyl-4-(2,4,4-trimethylpentyl)-1,4-dihydropyridine-3,5-dicarboxylic acid bis[3-(3-pyridyl)propyl]ester]", "values": [{"measurement": "Effect for overcoming resistance T/V (%)", "setting": "[1]; [6]", "value": 150, "unit": "%"}, {"measurement": "Life prolonging rate T/C (%)", "setting": "[1]; [6]", "value": 148, "unit": "%"}, {"measurement": "Mean days of survival", "setting": "[1]; [6]", "value": 15.8, "unit": "days"}, {"measurement": "IC50", "setting": "[2]", "value": 54, "unit": "µM"}]}]}
